Laboratory results as given in PMC12040169 (PLOS Biology, 2025).

Experiment: in vitro
Settings: human, hela cells

| SMILES | viability at 28.5 h, 10 µM (% viability) [%] | viability at 28.5 h, 10 µM [%] |
| --- | --- | --- |
| O=C1N2CCSC2=NC1(Nc1nccs1)C(F)(F)F (centres unmarked) [CBK267484] | 84.1 |  |
| O=C(c1cc2c(F)cccc2[nH]1)N1CCC(Oc2cccnc2)CC1 [CBK281468] | 103 |  |
| Cc1cc(=O)oc2cc(Sc3ccc([N+](=O)[O-])cc3)ccc12 [CBK002954] | 95.7 |  |
| N#CCCCN1CCCC2(C1)NCCc1c2[nH]c2cc(F)ccc12 (centres unmarked) [CBK039826] | 117 |  |
| CCOc1nccnc1N1CCNCC1 [CBK001899G] | 93.1 |  |
| C=CCNc1nccnc1-c1ccc(CO)cc1 [CBK036870] | 91.4 |  |
| O=C(NCC1CCNCC1)c1ccncc1 [CBK267637C] | 95 |  |
| c1ccc2c(c1)NCC21CCNCC1 [CBK022583] | 101 |  |
| O=C(c1cnoc1-c1ccc([N+](=O)[O-])cc1)N1CCCC1 [CBK153846] | 107 |  |
| COc1ccc(CN(CCN2CCOCC2)C(=O)Nc2cccnc2)cc1OC [CBK159379] | 93.2 |  |
| O=C(c1ccc(F)cc1)[C@H]1CCCN(C(=O)C2CC2)C1 [CBK284326] | 90.5 |  |
| Cn1cccc1C(=O)NCc1ccccc1OC1CCNC1 (centres unmarked) [CBK029463T] | 88.7 |  |
| COc1ccccc1CCNC(=O)c1ncoc1-c1cccs1 [CBK282394] | 76.4 |  |
| C=CCn1nnc(NC(=O)COc2ccccc2)n1 [CBK288131] | 108 |  |
| c1ccc(CN2CCN(c3nccnc3OCc3cccnc3)CC2)cc1 [CBK083129T] | 91.3 |  |
| Cc1cc(CC(=O)NCCc2c[nH]c3ccc(Cl)cc23)on1 [CBK159774] | 86.4 |  |
| Clc1ccc(OCC2CCN(Cc3c[nH]cn3)CC2)cc1 [CBK281543] | 82.7 |  |
| COc1nccnc1OC1CCN(CCc2ccccc2)CC1 [CBK084258] | 95 |  |
| O=C(NC(c1ccccc1)c1ccco1)C1CCN(C(=O)CCC2CCCC2)CC1 (centres unmarked) [CBK059887] | 90.4 |  |
| COc1ccc(-c2c[nH]c3c(=S)[nH]cnc23)cc1 [CBK288462] | 60.5 |  |
| CC(C)(C)COC(=O)N1CCC(N2CCOc3ccc(-c4ccc(S(C)(=O)=O)cc4)cc3C2)CC1 [CBK169264] | 83 |  |
| COc1ccc2[nH]c3c(c2c1)CCNC31CCN(Cc2ccccc2)C1 (centres unmarked) [CBK073952C] | 86.5 |  |
| Cn1cncc1C(=O)N1CCN(Cc2ccccc2)CC1 [CBK200178] | 98.2 |  |

| SMILES | viability at 28.5 h, 10 µM (% viability) [%] | viability at 28.5 h, 10 µM [%] |
| --- | --- | --- |
| Cc1cc2c(cc1C)NC(CC(=O)Nc1ccc(N(C)C)cc1)C(=O)N2 (centres unmarked) [CBK265595] | 85.8 |  |
| NS(=O)(=O)c1cnccc1NCCc1ccccc1 [CBK058003] | 103 |  |
| O=c1[nH]c2ccccc2n1C1CCN(CCOC(c2ccc(F)cc2)c2ccc(F)cc2)CC1 [CBK099807G] | 101 |  |
| N#CC(CCCN1CCC(O)(c2ccccc2)CC1)(c1ccccc1)c1ccccc1 [CBK002145] |  | 105 |
| CCCC/C=C/c1cnc2[nH]c(=O)n([C@H](C)c3ccccc3)c2n1 [CBK064182] | 99.7 |  |
| CCOC(=O)CC(=O)COc1noc2nc(C)cc(C)c12 [CBK269595] | 98.2 |  |
| COc1cc(OC)c(NS(=O)(=O)c2cc(C(=O)O)ccc2C)cc1Cl [CBK296105] | 101 |  |
| c1csc(-c2nccnc2OCC2COc3ccccc3O2)c1 (centres unmarked) [CBK107063] | 101 |  |
| O=C(C[C@@H]1CCNC[C@@H]1Cc1cc(-c2ccccc2)on1)NC1CC1 [CBK289146] | 88 |  |
| Oc1ccc2ccccc2c1/C=N/Nc1nnc(-c2ccccc2)c(-c2ccccc2)n1 [CBK262005] | 91.9 |  |
| NS(=O)(=O)c1ccc(NC(=O)CSc2ccc3ccccc3n2)cc1 [CBK265663] | 74.6 |  |
| COc1ccc(OC)c(-c2cc(C(=O)O)c(C)o2)c1 [CBK049343] | 97.9 |  |
| CS(=O)(=O)N1CC[C@H](c2nc3ccccc3s2)C1 [CBK289374] | 77.8 |  |
| CS(=O)(=O)Nc1ccc2c(O)c(C(=O)NCc3ccc(Cl)cc3)c(=O)[nH]c2c1 [CBK017559] | 88.9 |  |
| CC(=O)N1CCCc2cc(C(O)CN3CCC(C)CC3)ccc21 (centres unmarked) [CBK282588] | 87.3 |  |
| Cn1nc(C2CCCCC2)cc1[C@H]1CN2CC[C@H]1C[C@@H]2CNC(=O)c1ccco1 [CBK289106] | 95.3 |  |
| Cc1cc(N2CCN(C(=O)CCc3ccco3)CC2)nc(C(C)C)n1 [CBK305367] | 106 |  |
| CN(Cc1cc(C(C)(C)C)c(O)c(C(C)(C)C)c1)Cc1cc(C(C)(C)C)c(O)c(C(C)(C)C)c1 [CBK261980] | 97 |  |
| Fc1ccccc1CSc1nnc(-c2cnccn2)n1Cc1ccco1 [CBK267556] | 96.4 |  |
| Nc1nc2ccccc2c(=O)[nH]1 [CBK028707] | 101 |  |
| Oc1ccc(C2N(O)C3CCCCC3N2O)cc1 (centres unmarked) [CBK261715] | 92.8 |  |
| COC1CCCC(C(=O)N2CCCC2c2nc3ccccc3[nH]2)C1 (centres unmarked) [CBK284007] | 101 |  |
| O=C(Nc1cc(Cl)ccc1O)c1ccc(C(=O)Nc2cc(Cl)ccc2O)cc1 [CBK266784] | 94.9 |  |

| SMILES | viability at 28.5 h, 10 µM (% viability) [%] | viability at 28.5 h, 10 µM [%] |
| --- | --- | --- |
| Cc1ccc(C(=O)NCC(c2ccccc2Cl)N2CCOCC2)c(=O)[nH]1 (centres unmarked) [CBK305928] | 99.3 |  |
| O=c1c2ccccc2nc2n1CCN(Cc1ccccc1)CC2 [CBK284790] | 90.2 |  |
| CC(=O)Oc1cccc(C(=O)O)c1C [CBK038235] | 87.7 |  |
| NC(=O)c1ccccc1NC(=O)CN(c1cccc(Br)c1)S(=O)(=O)c1ccccc1 [CBK265263] | 92.1 |  |
| Cc1cccc2c1ncn1c(=O)n(CC(=O)Nc3cccc(Cl)c3)nc21 [CBK287815] | 81.8 |  |
| COc1cc(CNc2ccccc2Cl)ccc1OCC(=O)O [CBK287045] | 89.7 |  |
| O=C(Cn1c(=O)oc2ccccc21)Nc1ccc(S(=O)(=O)Nc2nccs2)cc1 [CBK267686] | 80.2 |  |
| O=C(O)C1CC=CCC1C(=O)NCc1ccc(N2CCCC2=O)cc1 (centres unmarked) [CBK270081] | 79.7 |  |
| CNC(=O)C1(Cc2cccc(-c3cccs3)c2)CCN(C(=O)CCc2ccccc2)CC1 [CBK285913] | 90.4 |  |
| CC(C)c1ccc(S(=O)(=O)Nc2ccc(C(=O)O)c(O)c2)cc1 [CBK299819] | 104 |  |
| CC(NS(=O)(=O)c1ccccc1)C(=O)Nc1ccc(S(N)(=O)=O)cc1 (centres unmarked) [CBK266929] | 110 |  |
| Cc1ccccc1C(NC(=O)C1CCN(C(=O)CCC2CCCC2)CC1)c1ccccn1 (centres unmarked) [CBK059677] | 90.5 |  |
| Cc1ccc(S(=O)(=O)N2CCOCC2)cc1S(=O)(=O)N1CCOCC1 [CBK261733] | 90.8 |  |
| CCN(Cc1cnc(C)s1)[C@H]1CCO[C@@H](c2ccccc2-c2ccc(OC)cc2)C1 [CBK285853] | 95.5 |  |
| CC(NC1CCCN(c2ccc(C#N)cc2)C1=O)c1cncc(F)c1 (centres unmarked) [CBK306404] | 90.7 |  |
| CN(C)C(=O)c1cccc(-c2cnc3[nH]c(=O)n(Cc4ccc(Cl)cc4)c3n2)c1 [CBK064553] | 97.5 |  |
| Cc1cc(CN2CCN(C(C)c3nc(C(C)(C)C)no3)CC2)no1 (centres unmarked) [CBK305641] | 97.7 |  |
| CCN(CC)C(=O)c1ccc(NS(=O)(=O)c2ccc(-c3ccccc3)cc2)cc1 [CBK034395] | 97.5 |  |
| COc1ccc2nc(-c3cccc(NC(=O)c4ccc(F)cc4)c3)cn2n1 [CBK287826] | 104 |  |
| COc1cccc2cc(C(=O)C3=C(O)C(=O)N(CCN4CCOCC4)C3c3ccc(F)cc3)oc12 (centres unmarked) [CBK266414] | 93.3 |  |
| CCCCN1CCC(C(=O)Oc2ccc(OC)c3ccccc23)CC1 [CBK122682] | 97.2 |  |
| CCOC(=O)c1cccc(S(=O)(=O)NC(C)Cn2cncn2)c1 (centres unmarked) [CBK305820] | 95.9 |  |
| Oc1cc(C(F)(F)F)nc(NCc2ccc3ccccc3c2)n1 [CBK003459] | 92.2 |  |

| SMILES | viability at 28.5 h, 10 µM (% viability) [%] | viability at 28.5 h, 10 µM [%] |
| --- | --- | --- |
| Cc1nn(Cc2ccccc2)c(Cl)c1C=Cc1cc(C(=O)O)c2ccccc2n1 [CBK296942] | 95.4 |  |
| COc1ccc(C=CC(=O)N(C)c2ccccc2C(=O)O)cc1 [CBK296135] | 106 |  |
| COc1ccc(F)c(CN(CC2CCNCC2)C(=O)Nc2ccccc2C(F)(F)F)c1 [CBK049805] | 96.9 |  |
| COc1ccccc1-c1noc(CCCC(=O)Nc2cccnc2)n1 [CBK268848] | 101 |  |
| CC(=O)NC(C)(COc1nonc1C)COc1nonc1C [CBK265955] | 90.3 |  |
| CN(CC(=O)O/N=C(\N)c1ccc(I)cc1)S(=O)(=O)c1cc(Cl)ccc1Cl [CBK268389] | 89.6 |  |
| COC(=O)c1scc(NS(=O)(=O)c2ccc(Cl)cc2Cl)c1C(=O)OC [CBK026681] | 89.4 |  |
| CN1[C@@H]2CC[C@H]1C[C@@H](N1Cc3cc4ccccc4n3C1=O)C2 [CBK017722] | 124 |  |
| Cc1ccc(OCC(=O)Nc2ncc(C(F)(F)F)cc2Cl)c(Br)c1 [CBK266426] | 95.1 |  |
| COc1ccc([C@]23CN(C)C[C@H]2CCN(C(=O)Nc2cccc(Br)c2)C3)cc1OC [CBK075106T] | 105 |  |
| CSc1nnc(SCC(=O)N2CCC(C(F)(F)F)CC2)s1 [CBK057829] | 111 |  |
| Cc1cc(C[C@@H]2COC[C@H]2NCc2ccc(C(C)C)cc2)on1 [CBK284884] | 107 |  |
| Cc1noc(C)c1S(=O)(=O)Nc1nc(=O)[nH]cc1F [CBK067569] | 103 |  |
| CC(=O)NC(c1nccs1)C1CCN(C(=O)C(C)(C)C)CC1 (centres unmarked) [CBK284677] | 88.9 |  |
| O=c1n(-c2cccc(C(F)(F)F)c2)ccn1S(=O)(=O)c1ccc(Cl)c(Cl)c1 [CBK106579] | 96.7 |  |
| Cc1ccc(C2CCCN2C(=O)c2ccc(=O)n(CC(=O)N(C)c3ccccc3)c2)cc1C (centres unmarked) [CBK285653] | 107 |  |
| COCOc1ccc(-c2nccnc2OC)cc1 [CBK106914] | 111 |  |
| O=C1Nc2ccccc2C(O)(C(=O)NCc2ccccc2)N1c1ccccc1 (centres unmarked) [CBK288555] | 91.1 |  |
| O=C(Nc1cccc(Cl)c1Cl)c1cnccn1 [CBK288243] | 105 |  |
| C=CCn1c2cc(C)sc2c2cnn(CC(=O)NC(C)C)c(=O)c21 [CBK284150] | 89 |  |
